From ChEMBL document CHEMBL5465560, “Selectivity Literature for EUbOPEN Chemogenomic Library” (2024) come the findings set out here.

Test [1] concerns the target T1, Dual specificity protein kinase TTK (Homo sapiens) (UniProt P33981).
T1 sequence (whole entry): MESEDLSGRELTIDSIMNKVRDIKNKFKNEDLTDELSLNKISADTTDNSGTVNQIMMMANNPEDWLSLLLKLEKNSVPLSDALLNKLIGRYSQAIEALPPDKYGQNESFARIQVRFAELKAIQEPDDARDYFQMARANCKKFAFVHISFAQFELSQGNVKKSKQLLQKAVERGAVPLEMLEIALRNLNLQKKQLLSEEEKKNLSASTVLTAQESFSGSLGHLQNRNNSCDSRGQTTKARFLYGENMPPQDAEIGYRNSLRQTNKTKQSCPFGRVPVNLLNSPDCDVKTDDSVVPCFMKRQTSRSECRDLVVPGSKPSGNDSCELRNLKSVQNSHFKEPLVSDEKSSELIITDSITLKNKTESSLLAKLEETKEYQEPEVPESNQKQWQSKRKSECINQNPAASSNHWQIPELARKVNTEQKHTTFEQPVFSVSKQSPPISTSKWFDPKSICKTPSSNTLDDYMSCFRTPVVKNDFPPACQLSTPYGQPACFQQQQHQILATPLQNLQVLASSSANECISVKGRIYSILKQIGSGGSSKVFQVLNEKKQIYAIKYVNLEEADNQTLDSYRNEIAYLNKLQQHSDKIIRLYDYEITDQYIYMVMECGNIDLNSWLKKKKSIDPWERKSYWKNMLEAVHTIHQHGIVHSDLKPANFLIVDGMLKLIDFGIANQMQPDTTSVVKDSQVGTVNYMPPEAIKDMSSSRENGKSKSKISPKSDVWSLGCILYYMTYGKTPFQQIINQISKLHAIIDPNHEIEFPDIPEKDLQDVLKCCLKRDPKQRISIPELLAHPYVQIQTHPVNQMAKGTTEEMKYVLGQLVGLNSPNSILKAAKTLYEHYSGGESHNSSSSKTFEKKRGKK
The following applies: at 10 µM.

The target of test [2] is T2, Cytoplasmic tyrosine-protein kinase BMX (Homo sapiens) (UniProt P51813).
T2 sequence (whole entry): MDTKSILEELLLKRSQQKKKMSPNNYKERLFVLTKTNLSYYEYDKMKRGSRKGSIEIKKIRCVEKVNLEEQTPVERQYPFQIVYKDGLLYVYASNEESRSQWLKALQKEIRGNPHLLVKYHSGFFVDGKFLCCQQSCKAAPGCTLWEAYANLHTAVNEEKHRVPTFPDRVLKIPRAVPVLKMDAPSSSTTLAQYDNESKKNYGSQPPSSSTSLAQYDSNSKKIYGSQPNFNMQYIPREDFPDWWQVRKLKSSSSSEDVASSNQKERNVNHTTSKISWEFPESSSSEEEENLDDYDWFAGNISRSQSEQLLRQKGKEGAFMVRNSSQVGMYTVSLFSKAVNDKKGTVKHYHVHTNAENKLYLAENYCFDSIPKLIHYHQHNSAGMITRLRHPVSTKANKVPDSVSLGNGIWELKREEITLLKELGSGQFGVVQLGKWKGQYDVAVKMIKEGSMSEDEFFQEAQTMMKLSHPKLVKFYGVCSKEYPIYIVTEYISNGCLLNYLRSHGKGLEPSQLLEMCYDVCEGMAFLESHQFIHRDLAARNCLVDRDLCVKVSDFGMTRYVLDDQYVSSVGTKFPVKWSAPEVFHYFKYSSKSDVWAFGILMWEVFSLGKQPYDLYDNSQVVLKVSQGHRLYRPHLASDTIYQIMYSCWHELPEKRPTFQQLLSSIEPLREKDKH
The test can be described thus: Selectivity interaction (KinomeScan (DiscoverX)) EUB0000655a BMX. The following applies: at 10 µM.

The target of test [3] is T3, Muscle, skeletal receptor tyrosine-protein kinase (Homo sapiens) (UniProt O15146).
T3 sequence (whole entry): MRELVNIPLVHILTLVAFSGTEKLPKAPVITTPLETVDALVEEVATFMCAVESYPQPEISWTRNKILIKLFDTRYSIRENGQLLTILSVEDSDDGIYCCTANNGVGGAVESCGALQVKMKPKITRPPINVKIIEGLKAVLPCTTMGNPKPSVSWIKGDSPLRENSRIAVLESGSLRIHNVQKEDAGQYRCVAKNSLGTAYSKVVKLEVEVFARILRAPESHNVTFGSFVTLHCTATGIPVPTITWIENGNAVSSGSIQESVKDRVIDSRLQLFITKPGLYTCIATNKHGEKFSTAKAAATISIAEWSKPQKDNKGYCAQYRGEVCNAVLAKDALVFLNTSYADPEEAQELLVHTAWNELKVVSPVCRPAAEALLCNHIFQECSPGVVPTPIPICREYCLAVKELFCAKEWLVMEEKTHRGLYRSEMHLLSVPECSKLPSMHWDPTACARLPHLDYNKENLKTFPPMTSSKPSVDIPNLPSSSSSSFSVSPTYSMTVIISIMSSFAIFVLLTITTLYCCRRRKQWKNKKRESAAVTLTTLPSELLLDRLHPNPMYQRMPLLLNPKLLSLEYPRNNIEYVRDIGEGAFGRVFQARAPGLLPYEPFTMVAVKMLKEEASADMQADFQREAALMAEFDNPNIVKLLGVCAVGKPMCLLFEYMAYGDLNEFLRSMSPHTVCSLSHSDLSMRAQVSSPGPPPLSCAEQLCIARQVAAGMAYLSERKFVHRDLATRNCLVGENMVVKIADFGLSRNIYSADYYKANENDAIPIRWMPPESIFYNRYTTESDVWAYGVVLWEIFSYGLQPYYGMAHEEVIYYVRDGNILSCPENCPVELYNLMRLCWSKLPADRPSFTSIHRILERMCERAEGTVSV
The test can be described thus: Selectivity interaction (KinomeScan (DiscoverX)) EUB0000607a MUSK. The following applies: at 10 µM.

Test [4] addresses Serine/threonine-protein kinase MARK2 (Homo sapiens) (UniProt Q7KZI7). Kind of test: Selectivity interaction (ActivX KiNativ screen (kinase selectivity in THP-1 cell lysates)) EUB0000639a MARK2. It is filed as subcellular. The following applies: lysate, at 1 µM.

Serine/threonine-protein kinase MARK2 (Homo sapiens), sequence (Q7KZI7 whole entry): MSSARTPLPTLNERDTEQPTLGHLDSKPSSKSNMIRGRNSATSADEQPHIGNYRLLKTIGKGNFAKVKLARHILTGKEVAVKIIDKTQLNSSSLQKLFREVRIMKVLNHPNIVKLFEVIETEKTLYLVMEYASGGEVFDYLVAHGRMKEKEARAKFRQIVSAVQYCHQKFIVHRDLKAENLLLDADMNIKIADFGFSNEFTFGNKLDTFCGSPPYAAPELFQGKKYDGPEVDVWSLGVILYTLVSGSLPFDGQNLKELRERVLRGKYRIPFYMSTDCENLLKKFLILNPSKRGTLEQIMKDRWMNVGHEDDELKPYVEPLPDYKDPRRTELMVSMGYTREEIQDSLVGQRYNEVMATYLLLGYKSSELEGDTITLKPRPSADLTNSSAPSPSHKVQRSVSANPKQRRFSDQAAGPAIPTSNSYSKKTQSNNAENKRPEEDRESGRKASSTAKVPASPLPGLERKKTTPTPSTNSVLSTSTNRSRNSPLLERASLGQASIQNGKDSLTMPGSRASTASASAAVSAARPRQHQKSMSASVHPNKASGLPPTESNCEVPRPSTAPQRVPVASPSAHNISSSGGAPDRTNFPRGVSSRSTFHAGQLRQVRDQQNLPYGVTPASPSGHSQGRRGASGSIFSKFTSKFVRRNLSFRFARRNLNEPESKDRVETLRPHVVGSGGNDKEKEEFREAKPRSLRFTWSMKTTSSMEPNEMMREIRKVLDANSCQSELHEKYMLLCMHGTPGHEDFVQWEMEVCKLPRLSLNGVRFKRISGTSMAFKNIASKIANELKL

`CCN(CC)CCCCNc1ncc2cc(-c3cc(OC)cc(OC)c3)c(NC(=O)NC(C)(C)C)nc2n1` came in with a % of control in test [1] of 100%.

In the case of `CN(C)CCOc1ccc(-c2nc(-c3ccncc3)c(-c3ccc4c(c3)CC/C4=N\O)[nH]2)cc1`, the % of control in test [2] worked out at 81%.

For `CNC(=O)Nc1ccc(-c2nc(N3CC4CCC(C3)O4)c3cnn(C4CCC5(CC4)OCCO5)c3n2)cc1`, the % of control in test [3] stood at 92%.

On to `CC[C@@H]1[C@H](F)C(=O)N[C@@H]1COc1nccc2cc(C(N)=O)c(OC)cc12` [ZIMLOVISERTIB], for which the % of inhibition in test [4] turned out to be 26.6%.
